The results in this text go back to EP0526936A2, “Cholesterol-lowering agents” (MERCK & CO. INC., priority 1991, dated 1993).

The target in assay [1] is Farnesyl Transferase (Homo sapiens, UniProt P49356). The experiment in a line: Farnesyl-transferase assay (inhibition of Ras farnesylation in vitro). Particulars: ras-CVLS 3 μM, 60 min at room temperature. It is filed as biochemical. On the procedure: FARNESYL-TRANSFERASE ASSAY
100 µL of 0.5 M DTT was added to 900 µL of 1.1 M HEPES, pH 7.5 and 55.5 mM MgCl2 to yield a 10X buffer consisting of 1.0 M HEPES, pH 7.5, 50 mM MgCl2 and 50 mM DTT.
The reaction mix was prepared as below:
A Blank reaction mix was also prepared with the negative control ras-protein, and the Total/Sample reaction mix received the ras-CVLS. The same volumes were used to prepare the Blank reaction mix as those in Table 1.
The farnesyl trasferase solution was prepared as shown below. The farnesyl transferase mix was prepared right before use.
• i. The assay volume was 100 µL, the volume of sample to be tested was 5 µL and the time of incubation is 60 min at room temperature. • ii. The TECAN 8000/505, an automatic pipetting station, added 50 µL of water plus 5 µL of sample to the assay tubes. • iii. The ras-CVLS reaction mix (20 µL) was manually added to totals and unknowns. The negative control ras-protein reaction mix (20 µL) was manually added to the blank tubes. • iv. The farnesyl transferase mix (25 µL) was manually added to all tubes to initiate the reaction and the assay tubes were kept at room temperature for 60 min. • v. The assay was stopped placing the assay tubes in an ice bath for 5 minutes. • vi. 1.0 mL of 1.0 M HCI in 100% ethanol was then added to each tube. The assay tubes (uncapped) were incubated at 37 ° C for 60 min. to facilitate the hydrolysis of the FPP. • vii. Assay tubes were harvested through a TOMTEC 96-well harvestor (6 x 16 with extended tips, or SKATRON cell harvestor) onto LKB double thickness filter mats. • viii. The cell harvestor was adjusted so that each well was washed with 10 mL of 100% ethanol. • ix. Filter mats were baked in microwave oven for 6-8 min. to dry the filtermats. • x. The filter mats were placed in counting bags, 30 mL of LKB ,8-scint cocktail was added and the filter mats were counted for 120 sec. in the LKB β-plate counter.
Percent inhibition was calculated according to the following equation: [formula] […]

In assay [2] the target is T1, squalene synthase (Saccharomyces cerevisiae, UniProt P29704).
T1 construct: The pellet fractions were suspended at 10-20 mg/ml protein in breakage buffer containing 25% glycerol; endogenous in cells; host or cells: S. cerevisiae W303-1A
T1 sequence (P29704 1-444): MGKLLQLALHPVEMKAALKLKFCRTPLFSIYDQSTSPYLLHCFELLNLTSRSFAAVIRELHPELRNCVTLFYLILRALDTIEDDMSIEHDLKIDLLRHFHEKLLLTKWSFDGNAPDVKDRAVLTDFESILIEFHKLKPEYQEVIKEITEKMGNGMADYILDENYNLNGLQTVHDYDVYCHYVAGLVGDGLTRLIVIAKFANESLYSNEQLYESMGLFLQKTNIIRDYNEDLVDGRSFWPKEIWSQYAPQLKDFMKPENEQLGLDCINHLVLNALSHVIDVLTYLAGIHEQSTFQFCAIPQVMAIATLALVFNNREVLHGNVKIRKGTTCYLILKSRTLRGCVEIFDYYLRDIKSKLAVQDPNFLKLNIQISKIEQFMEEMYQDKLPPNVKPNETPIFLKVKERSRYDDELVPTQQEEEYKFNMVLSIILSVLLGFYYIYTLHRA
Kind of assay: Squalene synthase assay, yeast enzyme. It is filed as biochemical, S. cerevisiae W303-1A. As to conditions: yeast enzyme preparation; 12 min preincubation, 12 min reaction at 30 °C; read-out: Squalene Synthase Inhibition IC50 Yeast Enzyme (converted). The procedure:
(§1) The intrinsic squalene synthase inhibitory activity of representative compounds of this invention was measured by the standard in vitro protocol described below:
S. cerevisiae W303-1A (MATa ade2-1 canl-100 his3-11,15 leu2-3,112 trp1-1 ura3-1) was grown at 30 ° C for 24 hours in YPD medium ([…], 2% glucose) supplemented with 20 µg/mL adenine. The cells were washed and resuspended in a minimal volume of breakage buffer (100 mM KP04, pH 7.4, 3 mM DTT, 1 mM PMSF). The cells were added to the small chamber of the Bead-Beater Cell Disrupter (Biospec Products, Bartlesville, OK) containing 100 g of 0.5 mm glass beads. Buffer was added to fill the chamber. The sealed chamber was packed in ice and processed for 4 cycles of 30 sec with 2 min. cooling between cycles. Cell breakage was determined to be >90% by phase-contrast microscopy. The glass beads were removed by Whatman filter paper and the filtrate collected into an ice- immersed filter flask. The extract was centrifuged at 1500 x g for 10 min at 4°C. The pellet (P1) containing unbroken cells and cell walls was discarded. The supernatant (S1) was centrifuged at 30000 x g for 30 min at 4°C. The pellet (P2) contained about two-thirds of the total squalene synthase activity. The supernatant (S2) can be centrifuged at 100,000 x g for 60 min at 4°C to pellet the remaining activity (P3). The pellet fractions were suspended at 10-20 mg/ml protein in breakage buffer containing 25% glycerol. The activity was stable for several months at -80 ° C.
(§2) Reactions were performed in 1.2 mL polypropylene tube strips of eight. […] The reaction product was extracted with 0.4 mL heptane containing 0.4 µL carrier squalene 0.2 mL of the heptane extract was counted by liquid scintillation. […]
(§3) Percent inhibition is calculated by the formula: [formula]
lC50 values were determined by plotting the log of the concentration of the test compound versus the percentage inhibition. […]

Assay [3] concerns the target T2, squalene synthase (Rattus norvegicus, UniProt Q02769).
T2 construct: from tissue; host or cells: liver microsomes of male Charles River CD rats fed 0.1% lovastatin
T2 sequence (Q02769 1-416): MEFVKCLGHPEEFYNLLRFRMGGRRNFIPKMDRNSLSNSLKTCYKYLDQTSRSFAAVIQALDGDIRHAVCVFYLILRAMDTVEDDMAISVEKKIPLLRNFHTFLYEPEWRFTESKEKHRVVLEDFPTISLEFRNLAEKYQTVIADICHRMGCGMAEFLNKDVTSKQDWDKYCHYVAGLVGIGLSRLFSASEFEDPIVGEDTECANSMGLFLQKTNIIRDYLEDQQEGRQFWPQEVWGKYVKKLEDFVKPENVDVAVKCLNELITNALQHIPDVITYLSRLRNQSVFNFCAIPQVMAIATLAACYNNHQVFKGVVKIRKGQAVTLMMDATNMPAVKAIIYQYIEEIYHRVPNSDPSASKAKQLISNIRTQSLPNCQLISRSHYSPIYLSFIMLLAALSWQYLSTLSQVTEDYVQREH
Kind of assay: Squalene synthase assay, rat liver microsomes. Particulars: [4-14C]farnesyl-pyrophosphate, 20 minutes at 30 °C. It is filed as biochemical, rats. On the procedure:
Alternatively, the intrinsic squalene synthase inhibitory activity of the compounds formed in the fermentation of the microorganisms of the present invention may be measured by the standard in vitro protocol described below:
Male, CHARLES RIVER@ CD rats (120 to 150 g) were fed a diet containing 0.1% lovastatin for 4 days. The livers from these rats were homogenized in 5 volumes (mL/g) of ice cold 50 mM HEPES (4-(2-hydroxyethyl)-1-piperazine-ethanesulfonic acid), 5 mM EDTA(ethylenediaminetetraacetic acid) pH 7.5 with a Potter-Elvehjem type tissue grinder. The homogenate was centrifuged twice at 20,000 x g for 15 min. at 4°C, discarding the pellet each time. The supernatant was then centrifuged at 100,000 x g for 1 hr at 4°C. The resulting microsomal pellet was resuspended in a volume of the above homogenizing buffer equal to one-fifth the volume of the original homogenate. This microsomal preparation has a protein concentration of about 7 mg/mL. The microsomal suspensions were stored in aliquots at -70 °C. Squalene synthase activity in these aliquots is stable for a least several months. […]
This assay mix was degassed under a vacuum and flushed with N2. […] Ten mL of scintillation fluid was added to the heptane solution and radioactivity was determined by liquid scintillation counting.
as §3
On the technique in general: Liver microsomes are a subcellular fraction often used to study metabolism.

Assay [4] concerns the target T3, squalene synthase (Homo sapiens, UniProt P37268).
T3 construct: The HepG2 enzyme preparation was centrifuged at 34,000 rpm to separate the cytosol and microsomal enzymes; host or cells: HepG2
T3 sequence (P37268 1-417): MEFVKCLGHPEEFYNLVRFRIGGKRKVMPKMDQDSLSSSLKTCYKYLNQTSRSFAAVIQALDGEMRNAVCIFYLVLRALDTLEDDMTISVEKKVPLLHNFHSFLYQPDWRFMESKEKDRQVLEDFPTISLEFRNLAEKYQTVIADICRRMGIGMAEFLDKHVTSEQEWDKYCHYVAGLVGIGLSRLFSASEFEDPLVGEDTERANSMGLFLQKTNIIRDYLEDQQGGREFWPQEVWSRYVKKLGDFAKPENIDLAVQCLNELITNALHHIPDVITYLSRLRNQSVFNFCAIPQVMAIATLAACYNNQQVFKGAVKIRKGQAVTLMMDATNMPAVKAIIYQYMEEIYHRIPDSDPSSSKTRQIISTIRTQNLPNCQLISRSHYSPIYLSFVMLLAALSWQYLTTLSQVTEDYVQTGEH
Kind of assay: Squalene synthase assay, HepG2 cell enzyme. Particulars: HepG2 enzyme preparation; 12 min preincubation, 12 min reaction at 30 °C; read-out: Squalene Synthase Inhibition IC50 HepG2 Enzyme (converted). It is filed as biochemical. The procedure: as §1
1. SOURCE: HEPG2 CELL LINE (Liver, hepatoblastoma, Human) ATCC No. HB 8065
Culture Medium: Minimum essential medium (MEM) with non-essential amino acids, sodium pyruvate, and 10% fetal bovine serum. The medium was changed twice weekly. […] The growth medium was prepared as listed below.
SUBCULTURE PROCEDURE: The medium was removed and washed with PBS (Phosphate-Buffered Saline 15.6 mM, pH 7.0). Fresh trypsin (0.25%)-EDTA (0.02%) with Hank's Balanced Salt solution was added and the flask was allowed to stand for a minute before the trypsin solution was removed. The flask was incubated at 370 C until cells detached. Fresh medium was added and the cells were dispersed and dispensed into new flasks. Subcultivation ratio: 1:6.
PREPARATION OF DELIPIDATED SERUM: Fetal calf serum (100 ml) and CAB-O-Sil (2 grams) were stirred overnight at 4°C and centrifuged at 16,000 rpm for 5 hrs. The supernantant was filtered and the serum was stored at 4 C.
48 hrs. prior to harvest, cells grown in MEM with 10% Fetal Calf serum were switched to MEM with 10% delipidated serum.
HARVEST: The medium was removed and the cells were washed with PBS. Fresh trypsin (0.25%)-EDTA (0.02%) with Hanks' Balanced Salt solution was added and allowed to stand and removed. The flask was incubated at 37 C until the cells detached. MEM medium (6 mL/flask) was added to suspend cells and combined into a centrifuge tube. […] Cells were counted ([…] yield from 18 flasks (75 cm^2)), and resuspended in 10 mL of 50mM HEPES (N-[2-Hydroxyethyl]piperazine-N'-[2-ethane-sulfonic acid]) containing 5mM MgCI2, 2mM MnCI2, 10mM DTT, pH 7.5 (enzyme suspension buffer). […]
as §2
Percent inhibition is calculated by the formula: [formula] […]

In general, IC50 refers to the concentration that inhibits the measured activity by half. `CCCCCCCC(=O)CCCCCC/C=C/C(C(=O)NC(Cc1ccc(O)cc1)C(=O)O)C(O)(CC(=O)O)C(=O)O` (stereo not shown) [Compound A]: the IC50 in assay [1] is 8 µM; in assay [2], 12.7 µM; in assay [3], 15 µM; in assay [4], 70.3 µM.

Consider `CCCCCCCC(=O)CCCCCC/C=C/C(C(=O)NC(Cc1ccccc1)C(=O)O)C(O)(CC(=O)O)C(=O)O` (stereo not shown) [Compound C], for which the IC50 is 4.5 µM in assay [1], 1.74 µM in assay [2] and 33.5 µM in assay [4].

For the compound `CCCCCCCC(=O)CCCCCC/C=C/C(C(=O)NC(Cc1c[nH]c2ccccc12)C(=O)O)C(O)(CC(=O)O)C(=O)O` (stereo not shown) [Compound D], the IC50 was 3.3 µM in assay [1], 0.358 µM in assay [2] and 0.472 µM in assay [4].
